Patent publication US12582720B2, “Compound for preventing or treating lipid metabolism-related diseases” (Fudan University, priority 2020, dated 2026)
Like-named read-outs stand apart in the source and are kept apart here.

Columns and labels:
[1] = system: lipid droplets in wild type MEF cells; assay: Reduction of OA-induced lipid droplets in wild type MEF cells (BODIPY 493/503 staining); assay type: cell-based, mouse; conditions: MEF, unconjugated compound 5 μM
Description: (5) OA-BSA stock solution was prepared into OA-BSA working solution (50× final concentration, 200 μM), and 40 μl of OA-BSA working solution was added to each well to induce lipid droplets. For the non-OA induction group, 40 μl of 10% BSA solution was added to the control well, and the amount of BSA was the same as that of the experimental group.
Compounds were formulated into DMSO stock solutions. Stock compounds were diluted with DMSO into the indicated concentrations of working solutions prior to use in the treatment of cells. After induction of the lipid droplets with OA for the indicated time, the test compounds were added to the cells respectively. Control wells were replaced with the equal volume of DMSO. Unless otherwise stated, the compounds were diluted into 10× solutions using the culture medium and added to the culture medium for 24 hours of incubation. Cells were treated with compounds in a 37° C. incubator with 5% CO2.
(3) The original medium in the multi-well plates was removed, washed and the cells was fixed, 1 ml of the BODIPY solution prepared in (1) was added to each well, and stained for 15 minutes. The staining solution was aspirated and washed with 1×PBS.
(5) The coverslips laid in the multi-well plates were removed, and imaged with the Zeiss 880 confocal microscope after mounted, and analyzed the size and number of lipid droplets with ImageJ.
Wild type MEF cells were cultured in a DMEM culture medium containing 10% FBS. Cells were plated according to the method as described above (12 well plate was plated with aseptic treated slides). When cells grew to a confluence of 60-70%, lipid droplets were induced with OA for 30 h according to the method as described above.
At the time point of 6th hour after initiation of induction, the cells were treated (treated for 24 hours) with Compound 1A or Compound 2A (compound concentrations were 50 μM, 15.8 μM, 5 μM, 1.58 μM, 0.5 μM, 0.158 μM) according to the method as described above.

[2] = system: lipid droplets in SH-SY5Y cells; assay: Reduction of OA-induced lipid droplets in SH-SY5Y cells; assay type: cell-based, human; conditions: unconjugated compound 5 μM
Description: The reduction of lipid droplets in SH-SY5Y cells by Compound 1A and Compound 2A was detected by a method that was similar to Example 2, and the result was shown in FIG. 18.
The effects of unconjugated LC3 binding Compound A1, A5 and unconjugated lipid droplet probe ORBB […] respectively on lipid droplets in SH-SY5Y cells (FIG. 20A) and MEF cells (FIG. 20B) were detected by a method similar to Example 2.

db/db mice = assay: Effect of the compound on db/db mouse; assay type: in vivo
Description: Experimental animals: nineteen-week-old db/db male mice (C57BL/6J-Lepr^db/Lepr^db) were obtained from Shanghai Model Organisms Co., Ltd., and acclimatized for at least 1 week before experiments. The mice had ad libitum access to standard chow and water.
Normal control: The C57BL/6 male mice fed on standard irradiated chow diet (Shuyishuer Inc. cat. no. D12450J) from Changzhou Shuyishuer Biotechnology Co., Ltd. (Shuyishuer Inc.) were used as the normal control.
Mice were randomly divided into 7 groups, wherein 8 mice in each group, and the mice in each group were subjected to intraperitoneal injection to administer: (1) only vehicle (no DMSO) group: 0% DMSO+39% PEG300 (Selleck, cat. no. S6704)+5% Tween-80 (Selleck, cat. no. S6702)+56% distilled water, (2) DMSO group: 1% DMSO+39% PEG300+5% Tween-80+55% H2O (DMSO vehicle), (3) C3 group: Compound 3A was in DMSO vehicle, (4) C4 group: Compound 4A in DMSO vehicle, (5) SIII group: Sudan III DMSO vehicle, (6) GW5074 group: Compound A1 in DMSO vehicle, (7) DP group: Compound A5 in DMSO vehicle. For groups (3)-(7), the compound (30 mg/kg, administration volume 150 μL) was administered through intraperitoneally injection for consecutive 2 weeks, and once a day. The food and water intake were measured with an analytical electronic balance.
Bodyweight was weighed every day.
If time permitted, tail vein blood (30-50 μL) was collected every 1-3 days.
24 hours after the time point of the last injection, end point maxillary surface blood sampling was performed on each mouse. All mice were Euthanized by cervical dislocation, and then tissue sample (e.g., liver samples) were obtained and stored in Eppendorf tubes at −80° C. for assay.
12 days after initiation of administration, each mouse was scanned by a minispec nuclear magnetic resonance (NMR) instrument (Bruker LF50 II “Minispec” body composition analyzer, Bruker Optics) that was designed for experimental animals, and based on the measurement of solid and liquid parts of the samples, the body fat and lean body weight were determined by this device.
Serum: Tail vein blood samples (30-50 μL) were left to coagulate in […] blood collection tubes (Jiangsu Kangjian Medical Products Co., Ltd., model KJ002) at room temperature without interference, and then centrifuged at 2,000×g for 10 minutes at 4° C. to remove the clot. Supernatant was collected to obtain the serum.
Liver: Liver samples were obtained as described in (2). 100 mg of liver tissue was homogenized in 0.9 mL of absolute alcohol under ice-cold conditions, and then centrifuged (2,500 r.p.m/min, 10 min). Supernatant was collected, and then stored at −80° C.
The kits were used according to the instruction from manufacturer (TAG: TG kit, cat. no. A110-1-1; TC: T-CHO kit, cat. no. A111-1. FFA: NEFA kit, cat. No. A042-2-1; they were all from Nanjing Jiancheng Bioengineering Institute). TAG, TC and FFA levels in serum and liver samples were determined.
According to the lipidomic method as described above, the contents of liver total lipid, glycerolipid, sterol lipid, neutral sphingolipid and polar lipid were analyzed. The log 2-fold change (log2 FC) and statistical significance (p-value) relative to the DMSO group were calculated.

[3] = system: lipid droplets in human normal liver cell line QSG7701; assay: Endogenous lipid droplets in human normal liver cell line QSG7701; assay type: cell-based; conditions: QSG7701, no induction, 5 μM, 24 h
Description: 10% FBS+90% RPMI 1640 culture medium was used for cultivation, cell incubator culture condition of 37° C. and 5% CO2 was used. Cells were plated as 50 thousands/well (12 well plate was plated with aseptic treated slides). When cells grew to a confluence of 80-90%, the compound (Compound 1A or Compound 2A, at a concentration of 5 μM) was added for treatment, and LC3 binding Compound A1, A5, lipid droplet probe Sudan IV as well as DMSO acted as a control. […]. In the compounds of present disclosure, LC3 binding moiety was covalently linked with lipid droplet binding moiety, and thus could achieve the effect of reducing liver cell endogenous lipid droplet.

[4] = system: lipid droplets in 3T3-L1 fat precursor cell differentiated fat cells; assay: Lipid droplets in 3T3-L1 fat precursor cell differentiated fat cells; assay type: cell-based, mouse; conditions: 3T3-L1 differentiated fat cells, 5 μM, 24 h
LC3B = LC3B (Homo sapiens, UniProt Q9GZQ8); assay: MST detection of affinity activity with LC3B; assay type: binding; set-up: His8 (with TEV site) (N); made in house; host or cells: Escherichia coli BL21(DE3)pLysS
Description: The recombinant GST-LC3B proteins were prepared and purified, dialyzed into 1×PBS, and then labelled with the red fluorophore with the protein labeling kit RED-NHS (Nanotemper, cat. no. L001).
The MST experiments were performed using the Monolith NT.115 instrument (NanoTemper Technologies). The reaction buffer contains 20 mM HEPES, pH 7.4, 150 mM NaCl, and the protein concentration was 500 nM. The MST data were collected under 40% infrared laser power and 20% light-emitting diode power. The data were analyzed by Nanotemper software.

[5] = system: autophagosome-lipid droplet colocalization in MEF cells; assay: Colocalization of autophagosome and lipid droplets in mCherry-LC3B transfected MEF cells; assay type: cell-based, mouse; conditions: 5 μM, 3 h, compared to DMSO control
Description: (1) In MEF cells, mCherry-LC3B was expressed by cDNA plasmid transfection.
(2) OA was added to the culture medium 30 hours after transfection to induce lipid droplets.
(3) Compounds were added to treat cells 6 hours after induction.
(4) 3 hours after compounds addition, cells were fixed and BODIPY stained.
(5) The coverslips laid in the multi-well plates were removed, and imaged with the Zeiss 880 confocal microscope after mounted to observe the aggregation of LC3 puncta around the lipid droplets.
In MEF cells, mCherry-LC3B was expressed by cDNA plasmid transfection. At 30th hour of overexpression, OA was added into cells for lipid droplet induction. 6 hours later, the compound was added for 3 hours' treatment, and then cells were subjected to immunostaining. […] Lipid droplets (green) were stained with BODIPY stain, and nucleus were indicated with DAPI stain. […] In FIG. 24, the colocalized autophagosome-lipid droplet was marked with circles.

[6] = MST, read-out: Kd, equilibrium dissociation constant between the LC3 binding compound and LC3B

With `O=c1cc(-c2ccccc2)c2c(O)cc(O)cc2o1` [Compound A5, 5,7-dihydroxy-4-phenyl-2H-coumarin, reference compound] the “lipid droplets (number and size)” value [1] was “did not significantly decrease or become smaller”, the “lipid droplets (number and size)” value [2] was “did not significantly decrease or become smaller” and the “mice died in the experiment” value (db/db mice; 30 mg/kg ip, 8 mice per group) was “one mouse”. For the same molecule, the “endogenous lipid droplets (amount)” value [3] was “no significant effect” and the “amount/size of lipid droplets” value [4] was “no significant effect”.

In the case of `Oc1ccc2ccccc2c1/N=N/c1ccc(/N=N/c2ccccc2)cc1` [Sudan III, reference compound], the TAG in liver (db/db mice; lipidomics) is reported as “not reduced”, the “other major neutral lipids, cholesteryl ester (ChE) and diglyceride (DG) in liver” value (db/db mice; lipidomics) is reported as “not reduced” and the “interaction with LC3B” value (LC3B; MST) is reported as “No interaction”. The “amount/size of lipid droplets” value [4] was “no significant effect”.

`O=C(O)c1cc2ccc(O)cc2oc1=O` [Compound A4] gave a Kd (LC3B; [6]) of 3 µM.

`Nc1ncnc2c1c(-c1cccc(OCc3ccccc3)c1)cn2C1CC(CN2CCCC2)C1` (centres unmarked) [Compound A10] showed a Kd (LC3B; [6]) of 3.98 ± 0.537 µM.

`OCCCCCCCCCCBr` [Linker, 10-bromo-1-decanol, reference compound] was tested, and the “amount/size of lipid droplets” value [4] was “no significant effect”.

`Cc1csc(-c2nnc(Nc3ccc(Oc4ncccc4-c4ccnc(N)n4)cc3)c3ccccc23)c1` [Compound A13] showed a Kd (LC3B; [6]) of 5.19 ± 0.282 µM.

`COc1ccc(-c2cc(=O)oc3c(C)c(O)c(CN(C)C)cc23)cc1` [Compound A7] was tested, and the Kd (LC3B; [6]) was 0.672 µM.

For `CC(C)(C)c1cc(NC(=O)Nc2ccc(-c3cn4c(n3)sc3cc(OCCN5CCOCC5)ccc34)cc2)no1` [Compound A12], the Kd (LC3B; [6]) was 21.3 ± 1.69 µM.

`COCC(=O)NC/C=C/c1ccc2ncnc(Nc3ccc(Oc4ccc(C)cc4)c(C)c3)c2c1` [Compound A11] gave a Kd (LC3B; [6]) of 2.78 ± 0.577 µM.

`Cc1ccc(C(=O)N(CCCN)[C@@H](c2nc3cc(Cl)ccc3c(=O)n2Cc2ccccc2)C(C)C)cc1` [Compound A8, ispinesib] gave a Kd (LC3B) of 0.462 ± 0.11 µM.

In the case of `Cc1ccccc1/N=N/c1ccc(/N=N/c2c(O)ccc3ccccc23)c(C)c1` [Sudan IV, reference compound], the “lipid droplets (number and size)” value [1] is reported as “did not significantly decrease or become smaller”, the “ratio of colocalization of red and green aggregation point (autophagosome-lipid droplet)” value [5] is reported as “No such effect” and the “lipid droplets (number and size)” value [2] is reported as “did not significantly decrease or become smaller”. For the same molecule, the “endogenous lipid droplets (amount)” value [3] was “no significant effect”, the “interaction with LC3B” value (LC3B; MST) was “No interaction” and the “amount/size of lipid droplets” value [4] was “no significant effect”.
